Experimental data reported in publication PMC8745237, “Multiple Antimicrobial Effects of Hybrid Peptides Synthesized Based on the Sequence of Ribosomal S1 Protein from Staphylococcus aureus” (International Journal of Molecular Sciences, 2022).

How the values were obtained:
S. aureus (209P strain) = assay: Preliminary testing of antimicrobial properties on agar, S. aureus; assay type: cell-based, Staphylococcus aureus
Description: (§1) Table S4. Results of preliminary testing the antimicrobial properties of the VVVHINGGKF (V10F), GVVVRLANFG (G10G),
VQGLVHISEI (V10I), QQVNVKILGI (Q10I) peptides against S. aureus, MRSA, B. cereus, and E. coli bacteria cells on agar.

MRSA (ATCC 43300 strain) = assay: Preliminary testing of antimicrobial properties on agar, MRSA ATCC 43300; assay type: cell-based, Methicillin-resistant Staphylococcus aureus
Description: as §1
(§2) VQGLVHISEI (V10I), QQVNVKILGI (Q10I) peptides against S. aureus, MRSA, B. cereus, and E. coli bacteria cells on agar. […]
MRSA (ATCC 43300 Non-AMP Non-AMP Non-AMP Non-AMP Non-AMP

MRSA (SA 180-F strain) = assay: Preliminary testing of antimicrobial properties on agar, MRSA SA 180-F; assay type: cell-based, Methicillin-resistant Staphylococcus aureus
Description: as §1, §2

E. coli (K12 strain) = assay: Preliminary testing of antimicrobial properties on agar, E. coli; assay type: cell-based, Escherichia coli
Description: as §1, §2

[1] = tested on: B. cereus (IP-5812 strain); assay: Preliminary testing of antimicrobial properties on agar, B. cereus; assay type: cell-based, Bacillus cereus
Description: as §1, §2

Q: How did the “antimicrobial properties on agar” value (S. aureus (209P strain); peptide 1 µM) turn out when GVVVRLANFG [G10G] was run?
A: Its value is “Non-AMP”.

Q: And the “antimicrobial properties on agar” value (S. aureus (209P strain); peptide 10 µM)?
A: The value was “Non-AMP”.

Q: And the “antimicrobial properties on agar” value (S. aureus (209P strain); peptide 100 µM)?
A: The value was “Non-AMP”.

Q: What about the “antimicrobial properties on agar” value (S. aureus (209P strain); peptide 1000 µM) of the same sequence?
A: The value was “Non-AMP”.

Q: What about the “antimicrobial properties on agar” value (S. aureus (209P strain); peptide 10000 µM) of the same sequence?
A: The value was “AMP”.

Q: What about the “antimicrobial properties on agar” value (MRSA (ATCC 43300 strain); peptide 1 µM) of the same sequence?
A: Its value is “Non-AMP”.

Q: What about the “antimicrobial properties on agar” value (MRSA (ATCC 43300 strain); peptide 10 µM) of the same sequence?
A: The value was “Non-AMP”.

Q: What about the “antimicrobial properties on agar” value (MRSA (ATCC 43300 strain); peptide 100 µM) of the same sequence?
A: Its value is “Non-AMP”.

Q: And the “antimicrobial properties on agar” value (MRSA (ATCC 43300 strain); peptide 1000 µM)?
A: Its value is “Non-AMP”.

Q: What about the “antimicrobial properties on agar” value (MRSA (ATCC 43300 strain); peptide 10000 µM) of the same sequence?
A: The value was “Non-AMP”.

Q: And the “antimicrobial properties on agar” value (MRSA (SA 180-F strain); peptide 1 µM)?
A: Its value is “Non-AMP”.

Q: And the “antimicrobial properties on agar” value (MRSA (SA 180-F strain); peptide 10 µM)?
A: The value was “Non-AMP”.

Q: What about the “antimicrobial properties on agar” value (MRSA (SA 180-F strain); peptide 100 µM) of the same sequence?
A: The value was “Non-AMP”.

Q: And the “antimicrobial properties on agar” value (MRSA (SA 180-F strain); peptide 1000 µM)?
A: The value was “Non-AMP”.

Q: And the “antimicrobial properties on agar” value (MRSA (SA 180-F strain); peptide 10000 µM)?
A: The value was “Non-AMP”.

Q: And the “antimicrobial properties on agar” value (E. coli (K12 strain); peptide 1 µM)?
A: Its value is “Non-AMP”.

Q: And the “antimicrobial properties on agar” value (E. coli (K12 strain); peptide 10 µM)?
A: The value was “Non-AMP”.

Q: And the “antimicrobial properties on agar” value (E. coli (K12 strain); peptide 100 µM)?
A: The value was “Non-AMP”.

Q: What about the “antimicrobial properties on agar” value (E. coli (K12 strain); peptide 1000 µM) of the same sequence?
A: The value was “Non-AMP”.

Q: And the “antimicrobial properties on agar” value (E. coli (K12 strain); peptide 10000 µM)?
A: Its value is “Non-AMP”.

Q: And the “antimicrobial properties on agar” value ([1]; peptide 1 µM)?
A: Its value is “Non-AMP”.

Q: What about the “antimicrobial properties on agar” value ([1]; peptide 10 µM) of the same sequence?
A: Its value is “Non-AMP”.

Q: And the “antimicrobial properties on agar” value ([1]; peptide 100 µM)?
A: The value was “Non-AMP”.

Q: And the “antimicrobial properties on agar” value ([1]; peptide 1000 µM)?
A: The value was “Non-AMP”.

Q: What about the “antimicrobial properties on agar” value ([1]; peptide 10000 µM) of the same sequence?
A: Its value is “Non-AMP”.
